Experimental data from ChEMBL document CHEMBL5032494, “Novel Mixed NOP/Opioid Receptor Peptide Agonists” (J Med Chem, 2021).
The source made the active and inactive calls. The calls are words filed in the database; no cut-off is given here. Where a SMILES comes first, the peptide text is derived from it. [ ]: non-standard residue; d: D form. Phe(4-NO2) = N[C@@H](Cc1ccc([N+](=O)[O-])cc1)C(=O)O; Bip = N[C@@H](Cc1ccc(-c2ccccc2)cc1)C(=O)O; Phe(4-NH2) = Nc1ccc(C[C@H](N)C(=O)O)cc1; Phe(4-F) = N[C@@H](Cc1ccc(F)cc1)C(=O)O; 1Nal = N[C@@H](Cc1cccc2ccccc12)C(=O)O; 2Nal = N[C@@H](Cc1ccc2ccccc2c1)C(=O)O; Dmt = Cc1cc(O)cc(C)c1C[C@H](N)C(=O)O; hPhe = N[C@@H](CCc1ccccc1)C(=O)O; Phg = N[C@H](C(=O)O)c1ccccc1; Dab = NCC[C@H](N)C(=O)O; Abu = CC[C@H](N)C(=O)O; Dap = NC[C@H](N)C(=O)O

What was measured:
Nociceptin receptor [1] = target: T1, Nociceptin receptor (Homo sapiens, UniProt P41146); assay: Agonist activity at human NOP receptor expressed in CHO cells assessed as stimulation of calcium mobilization by Fluo-4 AM dye based analysis
T1 sequence (P41146 whole entry): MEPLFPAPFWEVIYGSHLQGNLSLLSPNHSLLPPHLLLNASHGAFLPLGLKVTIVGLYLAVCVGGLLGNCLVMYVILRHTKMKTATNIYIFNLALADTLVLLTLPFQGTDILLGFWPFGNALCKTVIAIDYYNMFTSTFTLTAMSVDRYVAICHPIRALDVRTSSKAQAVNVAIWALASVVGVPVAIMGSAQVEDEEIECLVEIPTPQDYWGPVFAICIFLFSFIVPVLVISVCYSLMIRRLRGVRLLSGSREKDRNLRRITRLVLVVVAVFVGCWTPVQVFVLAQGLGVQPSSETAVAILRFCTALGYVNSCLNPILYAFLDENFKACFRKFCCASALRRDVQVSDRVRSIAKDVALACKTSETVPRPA

Mu-type opioid receptor [2] = target: T2, Mu-type opioid receptor (Homo sapiens, UniProt P35372); assay: Agonist activity at human mu opioid receptor expressed in CHO cells assessed as stimulation of calcium mobilization by Fluo-4 AM dye based analysis
T2 sequence (P35372 whole entry): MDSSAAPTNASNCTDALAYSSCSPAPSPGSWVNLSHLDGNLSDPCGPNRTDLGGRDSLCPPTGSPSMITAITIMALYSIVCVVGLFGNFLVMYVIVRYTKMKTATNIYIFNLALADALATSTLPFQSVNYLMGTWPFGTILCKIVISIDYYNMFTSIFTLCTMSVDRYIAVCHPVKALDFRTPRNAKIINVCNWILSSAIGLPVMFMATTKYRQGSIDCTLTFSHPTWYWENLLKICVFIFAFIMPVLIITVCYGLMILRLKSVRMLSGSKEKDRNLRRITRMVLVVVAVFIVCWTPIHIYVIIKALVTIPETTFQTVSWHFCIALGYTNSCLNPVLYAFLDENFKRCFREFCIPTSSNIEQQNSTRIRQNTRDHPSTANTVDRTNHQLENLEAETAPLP

CHO = assay: Concentration ratio of human NOP receptor expressed in CHO cells to human mu opioid receptor expressed in CHO cells; assay type: cell-based
Mu-type opioid receptor [3] = target: T2, Mu-type opioid receptor; assay: Agonist activity at human mu opioid receptor expressed in CHO cells assessed as stimulation of calcium mobilization by measuring concentration relative curve at 10 uM by Fluo-4 AM dye based analysis; assay type: functional, cell-based
Nociceptin receptor [4] = target: T1, Nociceptin receptor
Description: Agonist activity at human NOP receptor expressed in CHO cells assessed as dynamic mass redistribution by DMR assay

Mu-type opioid receptor [5] = target: T2, Mu-type opioid receptor; assay: Agonist activity at human mu opioid receptor expressed in CHO cells assessed as dynamic mass redistribution by DMR assay relative to control; assay type: functional, cell-based; conditions: filed as agonist
Mu-type opioid receptor [6] = target: T2, Mu-type opioid receptor; assay: Agonist activity at human mu opioid receptor expressed in CHO cells assessed as dynamic mass redistribution by DMR assay; assay type: functional, cell-based
Cavia porcellus [7] = organism: Cavia porcellus; assay: Anti-tussive activity in citric acid-induced guniea pig cough model assessed as reduction in cough number co- treated with nebulizer; assay type: functional, organism-based; conditions: time 30.0 min
[8] = target: Kappa-type opioid receptor (Homo sapiens, UniProt P41145); assay: Agonist activity at human kappa opioid receptor expressed in CHO cells assessed as stimulation of calcium mobilization by Fluo-4 AM dye based analysis; assay type: functional, cell-based
Chain of Kappa-type opioid receptor (P41145 whole entry): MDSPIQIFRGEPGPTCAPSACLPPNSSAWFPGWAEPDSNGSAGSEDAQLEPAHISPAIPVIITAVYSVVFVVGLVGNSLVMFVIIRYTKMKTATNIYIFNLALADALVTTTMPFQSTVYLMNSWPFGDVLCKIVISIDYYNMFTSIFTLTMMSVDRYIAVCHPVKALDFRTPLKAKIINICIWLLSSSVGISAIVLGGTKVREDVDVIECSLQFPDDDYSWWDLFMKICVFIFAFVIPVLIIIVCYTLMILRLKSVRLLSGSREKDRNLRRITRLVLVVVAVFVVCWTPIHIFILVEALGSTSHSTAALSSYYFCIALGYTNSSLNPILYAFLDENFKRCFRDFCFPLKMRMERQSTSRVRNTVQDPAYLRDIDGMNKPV

Cavia porcellus [9] = assay: Anti-tussive activity in citric acid-induced guniea pig cough model coadministered with citric acid; assay type: functional, organism-based
Mu-type opioid receptor [10] = target: T2, Mu-type opioid receptor; conditions: CHO

| Molecule | EC50 (Nociceptin receptor [1]) [nM] | EC50 (Mu-type opioid receptor [2]) [nM] | Ratio (CHO) | pEC50 (Mu-type opioid receptor [3]) | other results |
| --- | --- | --- | --- | --- | --- |
| Cc1cc(O)cc(C)c1C[C@H](N)C(=O)NCC(=O)NCC(=O)N[C@@H](Cc1ccccc1)C(=O)N[C@H](C(=O)NCC(=O)N[C@@H](C)C(=O)N[C@@H](CCCNC(=N)N)C(=O)N[C@@H](CCCCN)C(=O)N[C@@H](CO)C(=O)N[C@@H](C)C(=O)N[C@@H](CCCNC(=N)N)C(=O)N[C@@H](CCCCN)C(N)=O)[C@@H](C)O | 2.69 | 42.7 | 0.06 | – | – |
| H-YGGFVGARKSARK-NH2 | – | – | – | inactive | – |
| C[C@H](NC(=O)CNC(=O)[C@H](Cc1ccc([N+](=O)[O-])cc1)NC(=O)[C@H](Cc1ccccc1)NC(=O)CNC(=O)CNC(=O)[C@@H](N)Cc1ccc(O)cc1)C(=O)N[C@@H](CCCNC(=N)N)C(=O)N[C@@H](CCCCN)C(=O)N[C@@H](CO)C(=O)N[C@@H](C)C(=O)N[C@@H](CCCNC(=N)N)C(=O)N[C@@H](CCCCN)C(N)=O (H-YGGF[Phe(4-NO2)]GARKSARK-NH2) | 49 | – | 0.06 | inactive | – |
| C[C@H](NC(=O)CNC(=O)[C@H](Cc1ccc(N)cc1)NC(=O)[C@H](Cc1ccccc1)NC(=O)CNC(=O)CNC(=O)[C@@H](N)Cc1ccc(O)cc1)C(=O)N[C@@H](CCCNC(=N)N)C(=O)N[C@@H](CCCCN)C(=O)N[C@@H](CO)C(=O)N[C@@H](C)C(=O)N[C@@H](CCCNC(=N)N)C(=O)N[C@@H](CCCCN)C(N)=O (H-YGGF[Phe(4-NH2)]GARKSARK-NH2) | 30.2 | 372 | 0.08 | – | – |
| C[C@H](NC(=O)CNC(=O)[C@H](CN)NC(=O)[C@H](Cc1ccccc1)NC(=O)CNC(=O)CNC(=O)[C@@H](N)Cc1ccc(O)cc1)C(=O)N[C@@H](CCCNC(=N)N)C(=O)N[C@@H](CCCCN)C(=O)N[C@@H](CO)C(=O)N[C@@H](C)C(=O)N[C@@H](CCCNC(=N)N)C(=O)N[C@@H](CCCCN)C(N)=O (H-YGGF[Dap]GARKSARK-NH2) | – | – | – | inactive | – |
| C[C@H](NC(=O)CNC(=O)[C@H](Cc1ccc2ccccc2c1)NC(=O)[C@H](Cc1ccccc1)NC(=O)CNC(=O)CNC(=O)[C@@H](N)Cc1ccc(O)cc1)C(=O)N[C@@H](CCCNC(=N)N)C(=O)N[C@@H](CCCCN)C(=O)N[C@@H](CO)C(=O)N[C@@H](C)C(=O)N[C@@H](CCCNC(=N)N)C(=O)N[C@@H](CCCCN)C(N)=O (H-YGGF[2Nal]GARKSARK-NH2) | – | – | – | inactive | – |
| Cc1cc(O)cc(C)c1C[C@H](NC(=O)[C@H](Cc1ccccc1)NC(=O)CNC(=O)CNC(=O)[C@@H](N)Cc1c(C)cc(O)cc1C)C(=O)NCC(=O)N[C@@H](C)C(=O)N[C@@H](CCCNC(=N)N)C(=O)N[C@@H](CCCCN)C(=O)N[C@@H](CO)C(=O)N[C@@H](C)C(=O)N[C@@H](CCCNC(=N)N)C(=O)N[C@@H](CCCCN)C(N)=O (H-[Dmt]GGF[Dmt]GARKSARK-NH2) | 4.07 | 8.32 | 0.49 | – | EC50 (Nociceptin receptor [4]): 19.5 nM; Emax (Mu-type opioid receptor [5]): 202%; EC50 (Mu-type opioid receptor [6]): 2.29 nM; Activity (Cavia porcellus [7]): Active; EC50 [8]: 3.24 nM; Activity (Cavia porcellus [9]): inactive |
| Cc1cc(O)cc(C)c1C[C@H](N)C(=O)NCC(=O)NCC(=O)N[C@@H](Cc1ccccc1)C(=O)N[C@@H](Cc1ccccc1)C(=O)NCC(=O)N[C@@H](C)C(=O)N[C@@H](CCCNC(=N)N)C(=O)N[C@@H](CCCCN)C(=O)N[C@@H](CO)C(=O)N[C@@H](C)C(=O)N[C@@H](CCCNC(=N)N)C(=O)N[C@@H](CCCCN)C(N)=O (H-[Dmt]GGFFGARKSARK-NH2) | 56.2 | 6.46 | 8.71 | – | – |
| CC[C@H](NC(=O)[C@H](Cc1ccccc1)NC(=O)CNC(=O)CNC(=O)[C@@H](N)Cc1ccc(O)cc1)C(=O)NCC(=O)N[C@@H](C)C(=O)N[C@@H](CCCNC(=N)N)C(=O)N[C@@H](CCCCN)C(=O)N[C@@H](CO)C(=O)N[C@@H](C)C(=O)N[C@@H](CCCNC(=N)N)C(=O)N[C@@H](CCCCN)C(N)=O (H-YGGF[Abu]GARKSARK-NH2) | – | – | – | inactive | – |
| H-YGGFK(Ac)GARKSARK-NH2 | – | – | – | inactive | – |
| H-YGGFKGARKSARK-NH2 | – | – | – | inactive | – |
| H-YGGFNGARKSARK-NH2 | – | – | – | inactive | – |
| H-YGGFWGARKSARK-NH2 | – | – | – | inactive | – |
| C[C@H](NC(=O)CNC(=O)[C@H](CCc1ccccc1)NC(=O)[C@H](Cc1ccccc1)NC(=O)CNC(=O)CNC(=O)[C@@H](N)Cc1ccc(O)cc1)C(=O)N[C@@H](CCCNC(=N)N)C(=O)N[C@@H](CCCCN)C(=O)N[C@@H](CO)C(=O)N[C@@H](C)C(=O)N[C@@H](CCCNC(=N)N)C(=O)N[C@@H](CCCCN)C(N)=O (H-YGGF[hPhe]GARKSARK-NH2) | – | – | – | inactive | – |
| C[C@H](NC(=O)CNC(=O)[C@@H](NC(=O)[C@H](Cc1ccccc1)NC(=O)CNC(=O)CNC(=O)[C@@H](N)Cc1ccccc1)[C@@H](C)O)C(=O)N[C@@H](CCCNC(=N)N)C(=O)N[C@@H](CCCCN)C(=O)N[C@@H](CO)C(=O)N[C@@H](C)C(=O)N[C@@H](CCCNC(=N)N)C(=O)N[C@@H](CCCCN)C(N)=O | – | – | – | – | pEC50 (Mu-type opioid receptor [10]): inactive |
| Cc1cc(O)cc(C)c1C[C@H](N)C(=O)NCC(=O)NCC(=O)N[C@@H](Cc1ccccc1)C(=O)N[C@@H](Cc1ccc(N)cc1)C(=O)NCC(=O)N[C@@H](C)C(=O)N[C@@H](CCCNC(=N)N)C(=O)N[C@@H](CCCCN)C(=O)N[C@@H](CO)C(=O)N[C@@H](C)C(=O)N[C@@H](CCCNC(=N)N)C(=O)N[C@@H](CCCCN)C(N)=O (H-[Dmt]GGF[Phe(4-NH2)]GARKSARK-NH2) | 26.3 | 15.1 | 1.73 | – | – |
| Cc1cc(O)cc(C)c1C[C@H](N)C(=O)NCC(=O)NCC(=O)N[C@@H](Cc1ccccc1)C(=O)N[C@@H](Cc1ccc(O)cc1)C(=O)NCC(=O)N[C@@H](C)C(=O)N[C@@H](CCCNC(=N)N)C(=O)N[C@@H](CCCCN)C(=O)N[C@@H](CO)C(=O)N[C@@H](C)C(=O)N[C@@H](CCCNC(=N)N)C(=O)N[C@@H](CCCCN)C(N)=O (H-[Dmt]GGFYGARKSARK-NH2) | 123 | 15.5 | 7.94 | – | – |
| C[C@H](NC(=O)CNC(=O)[C@H](Cc1ccc(-c2ccccc2)cc1)NC(=O)[C@H](Cc1ccccc1)NC(=O)CNC(=O)CNC(=O)[C@@H](N)Cc1ccc(O)cc1)C(=O)N[C@@H](CCCNC(=N)N)C(=O)N[C@@H](CCCCN)C(=O)N[C@@H](CO)C(=O)N[C@@H](C)C(=O)N[C@@H](CCCNC(=N)N)C(=O)N[C@@H](CCCCN)C(N)=O (H-YGGF[Bip]GARKSARK-NH2) | – | – | – | inactive | – |
| C[C@H](NC(=O)CNC(=O)[C@H](Cc1ccc(F)cc1)NC(=O)[C@H](Cc1ccccc1)NC(=O)CNC(=O)CNC(=O)[C@@H](N)Cc1ccc(O)cc1)C(=O)N[C@@H](CCCNC(=N)N)C(=O)N[C@@H](CCCCN)C(=O)N[C@@H](CO)C(=O)N[C@@H](C)C(=O)N[C@@H](CCCNC(=N)N)C(=O)N[C@@H](CCCCN)C(N)=O (H-YGGF[Phe(4-F)]GARKSARK-NH2) | 49 | – | 0.06 | inactive | – |
| Cc1cc(O)cc(C)c1C[C@H](N)C(=O)NCC(=O)NCC(=O)N[C@@H](Cc1ccccc1)C(=O)N[C@@H](Cc1cccc2ccccc12)C(=O)NCC(=O)N[C@@H](C)C(=O)N[C@@H](CCCNC(=N)N)C(=O)N[C@@H](CCCCN)C(=O)N[C@@H](CO)C(=O)N[C@@H](C)C(=O)N[C@@H](CCCNC(=N)N)C(=O)N[C@@H](CCCCN)C(N)=O (H-[Dmt]GGF[1Nal]GARKSARK-NH2) | 60.3 | 15.8 | 3.8 | – | – |
| H-YGGFHGARKSARK-NH2 | – | – | – | inactive | – |
| Cc1cc(O)cc(C)c1C[C@H](N)C(=O)NCC(=O)NCC(=O)N[C@@H](Cc1ccccc1)C(=O)N[C@H](C(=O)NCC(=O)N[C@@H](C)C(=O)N[C@@H](CCCNC(=N)N)C(=O)N[C@@H](CCCCN)C(=O)N[C@@H](CO)C(=O)N[C@@H](C)C(=O)N[C@@H](CCCNC(=N)N)C(=O)N[C@@H](CCCCN)C(N)=O)c1ccccc1 (H-[Dmt]GGF[Phg]GARKSARK-NH2) | 112 | 2.88 | 39 | – | – |
| COc1ccc(C[C@H](NC(=O)[C@H](Cc2ccccc2)NC(=O)CNC(=O)CNC(=O)[C@@H](N)Cc2ccc(O)cc2)C(=O)NCC(=O)N[C@@H](C)C(=O)N[C@@H](CCCNC(=N)N)C(=O)N[C@@H](CCCCN)C(=O)N[C@@H](CO)C(=O)N[C@@H](C)C(=O)N[C@@H](CCCNC(=N)N)C(=O)N[C@@H](CCCCN)C(N)=O)cc1 (H-YGGFY(Me)GARKSARK-NH2) | 13.2 | – | 0.02 | inactive | – |
| H-YGGFTGARKSARK-NH2 | – | – | < 0.001 | inactive | – |
| Cc1cc(O)cc(C)c1C[C@H](NC(=O)[C@H](Cc1ccccc1)NC(=O)CNC(=O)CNC(=O)[C@@H](N)Cc1ccc(O)cc1)C(=O)NCC(=O)N[C@@H](C)C(=O)N[C@@H](CCCNC(=N)N)C(=O)N[C@@H](CCCCN)C(=O)N[C@@H](CO)C(=O)N[C@@H](C)C(=O)N[C@@H](CCCNC(=N)N)C(=O)N[C@@H](CCCCN)C(N)=O (H-YGGF[Dmt]GARKSARK-NH2) | 17.8 | 195 | 0.09 | – | – |
| C[C@H](NC(=O)CNC(=O)[C@H](CCN)NC(=O)[C@H](Cc1ccccc1)NC(=O)CNC(=O)CNC(=O)[C@@H](N)Cc1ccc(O)cc1)C(=O)N[C@@H](CCCNC(=N)N)C(=O)N[C@@H](CCCCN)C(=O)N[C@@H](CO)C(=O)N[C@@H](C)C(=O)N[C@@H](CCCNC(=N)N)C(=O)N[C@@H](CCCCN)C(N)=O (H-YGGF[Dab]GARKSARK-NH2) | – | – | – | inactive | – |
